Data on 38 molecules can be found in patent US20110118262A1, “Pyrrolidinyl and Piperidinyl Compounds Useful as NHE-1 Inhibitiors” (BOEHRINGER INGELHEIM INTERNATIONAL GMBH, priority 2008, published 2011).

T1 sequence (P19634 whole entry): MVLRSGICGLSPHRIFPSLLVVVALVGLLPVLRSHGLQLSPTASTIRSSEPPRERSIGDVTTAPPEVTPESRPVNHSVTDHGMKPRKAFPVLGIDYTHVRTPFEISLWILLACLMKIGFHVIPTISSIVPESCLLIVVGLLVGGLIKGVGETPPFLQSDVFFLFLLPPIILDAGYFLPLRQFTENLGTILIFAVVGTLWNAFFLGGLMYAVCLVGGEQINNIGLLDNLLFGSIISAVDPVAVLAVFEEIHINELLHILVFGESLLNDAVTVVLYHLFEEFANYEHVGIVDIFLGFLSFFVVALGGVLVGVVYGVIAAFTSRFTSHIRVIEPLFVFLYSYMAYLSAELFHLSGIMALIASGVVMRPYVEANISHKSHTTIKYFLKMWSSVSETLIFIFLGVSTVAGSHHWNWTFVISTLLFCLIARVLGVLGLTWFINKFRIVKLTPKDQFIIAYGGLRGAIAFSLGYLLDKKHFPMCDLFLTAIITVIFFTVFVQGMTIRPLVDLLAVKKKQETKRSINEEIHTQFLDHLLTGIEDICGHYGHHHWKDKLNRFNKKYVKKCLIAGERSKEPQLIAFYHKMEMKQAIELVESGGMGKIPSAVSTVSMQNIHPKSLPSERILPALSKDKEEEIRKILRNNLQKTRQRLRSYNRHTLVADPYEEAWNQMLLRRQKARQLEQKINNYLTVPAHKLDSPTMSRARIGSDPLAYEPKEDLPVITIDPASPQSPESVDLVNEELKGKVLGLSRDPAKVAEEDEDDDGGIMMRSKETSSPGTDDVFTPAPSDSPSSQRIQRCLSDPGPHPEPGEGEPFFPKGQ

The experiment has as its target T1, NHE-1 (Homo sapiens, UniProt P19634).
T1 construct: endogenous in cells; host or cells: HT-29
The experiment in a line: Evaluation of NHE-1 Inhibition (pHi) in HT-29 cells. It counts as cell-based. To be noted: BCECF dye, 50% inhibition of the intracellular pH recovery, read-out: NHE1 HT29 pHi IC50. The procedure, abridged:
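Intracellular pH measured with BCECF in HT-29 cells after 24 h culture. Cells dye-loaded 30 min at 37° C, then acid-loaded with NH4Cl-containing choline buffer (pH 7.5) for 30 min at RT. Compounds added on an FDSS6000 fluorescence reader.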
Regarding `COc1cc(C(=O)N2CCC(c3ccc(C(=O)NC(=N)N)cc3C(F)(F)F)CC2)ccn1` [N-{4-[1-(2-Methoxy-pyridine-4-carbonyl)-piperidin-4-yl]-3-trifluoromethyl-benzoyl}-guanidine], the IC50 turned out to be 40 nM.

With `Cc1ccccc1C(=O)N1CCC(c2ccc(C(=O)NC(=N)N)cc2C(F)(F)F)CC1` [N-{4-[1-(2-Methyl-benzoyl)-piperidin-4-yl]-3-trifluoromethyl-benzoyl}-guanidine], the IC50 is 51 nM.

Take `CC1(C(=O)N2CCC(c3ccc(C(=O)NC(=N)N)cc3C(F)(F)F)CC2)CCCN1` (centres unmarked) [N-{4-[1-(2-Methyl-pyrrolidine-2-carbonyl)-piperidin-4-yl]-3-trifluoromethyl-benzoyl}-guanidine]: the IC50 is 12 nM.

Regarding `N=C(N)NC(=O)c1ccc(C2CCN(C(=O)CN3CCOCC3)CC2)c(C(F)(F)F)c1` [N-{4-[1-(2-Morpholin-4-yl-acetyl)-piperidin-4-yl]-3-trifluoromethyl-benzoyl}-guanidine], the IC50 came to 25 nM.

Regarding `N=C(N)NC(=O)c1ccc(C2CCN(C(=O)Cc3cccnc3)CC2)c(C(F)(F)F)c1` [N-{4-[1-(2-Pyridin-3-yl-acetyl)-piperidin-4-yl]-3-trifluoromethyl-benzoyl}-guanidine], the IC50 is 27 nM.

For `Cc1cc(C2CCN(C(=O)CN(C)C)CC2)c(C(F)(F)F)cc1C(=O)NC(=N)N` [N-{4-[1-(2-dimethylamino-acetyl)-piperidin-4-yl]-2-methyl-5-trifluoromethyl-benzoyl}-guanidine], the IC50 amounted to 6 nM.

With `N=C(N)NC(=O)c1ccc(C2CCN(C(=O)CCN)CC2)c(C(F)(F)F)c1` [N-{4-[1-(3-Amino-propionyl)-piperidin-4-yl]-3-trifluoromethyl-benzoyl}-guanidine], the IC50 came to 8 nM.

As to `N=C(N)NC(=O)c1ccc(C2CCN(C(=O)c3cccc(Br)c3)CC2)c(C(F)(F)F)c1` [N-{4-[1-(3-Bromo-benzoyl)-piperidin-4-yl]-3-trifluoromethyl-benzoyl}-guanidine], the IC50 was 180 nM.

Consider `COc1cc(C2CCN(C(=O)c3cccc(C#N)c3)CC2)c(C(F)(F)F)cc1C(=O)NC(=N)N` [N-{4-[1-(3-Cyano-benzoyl)-piperidin-4-yl]-2-methoxy-5-trifluoromethyl-benzoyl}-guanidine], for which the IC50 is 19 nM.

`N#Cc1cccc(C(=O)N2CCC(c3ccc(C(=O)NC(=N)N)cc3C(F)(F)F)CC2)c1` [N-{4-[1-(3-Cyano-benzoyl)-piperidin-4-yl]-3-trifluoromethyl-benzoyl}-guanidine]: the IC50 was found to be 65 nM.

Turning to `CN(C)c1cccc(C(=O)N2CCC(c3ccc(C(=O)NC(=N)N)cc3C(F)(F)F)CC2)c1` [N-{4-[1-(3-Dimethylamino-benzoyl)-piperidin-4-yl]-3-trifluoromethyl-benzoyl}-guanidine], the IC50 is 77 nM.

Regarding `CN(C)CCC(=O)N1CCC(c2ccc(C(=O)NC(=N)N)cc2C(F)(F)F)CC1` [N-{4-[1-(3-Dimethylamino-propionyl)-piperidin-4-yl]-3-trifluoromethyl-benzoyl}-guanidine], the IC50 worked out at 10 nM.

Take `N=C(N)NC(=O)c1ccc(C2CCN(C(=O)c3cccc(F)c3)CC2)c(C(F)(F)F)c1` [N-{4-[1-(3-Fluoro-benzoyl)-piperidin-4-yl]-3-trifluoromethyl-benzoyl}-guanidine]: the IC50 came out at 105 nM.

Regarding `CS(=O)(=O)c1cccc(C(=O)N2CCC(c3ccc(C(=O)NC(=N)N)cc3C(F)(F)F)CC2)c1` [N-{4-[1-(3-Methanesulfonyl-benzoyl)-piperidin-4-yl]-3-trifluoromethyl-benzoyl}-guanidine], the concentration for half-maximal inhibition (IC50) was found to be 63 nM.

With `COc1cc(C(=O)N2CCC(c3ccc(C(=O)NC(=N)N)cc3C(F)(F)F)CC2)ccc1-c1cccnc1` [N-{4-[1-(3-Methoxy-4-pyridin-3-yl-benzoyl)-piperidin-4-yl]-3-trifluoromethyl-benzoyl}-guanidine], the IC50 worked out at 66 nM.

Consider `COc1cccc(C(=O)N2CCC(c3ccc(C(=O)NC(=N)N)cc3C(F)(F)F)CC2)c1` [N-{4-[1-(3-Methoxy-benzoyl)-piperidin-4-yl]-3-trifluoromethyl-benzoyl}-guanidine], for which the IC50 is 106 nM.

Consider `COCCC(=O)N1CCC(c2ccc(C(=O)NC(=N)N)cc2C(F)(F)F)CC1` [N-{4-[1-(3-Methoxy-propionyl)-piperidin-4-yl]-3-trifluoromethyl-benzoyl}-guanidine], for which the IC50 came out at 20 nM.

As to `COc1cccnc1C(=O)N1CCC(c2ccc(C(=O)NC(=N)N)cc2C(F)(F)F)CC1` [N-{4-[1-(3-Methoxy-pyridine-2-carbonyl)-piperidin-4-yl]-3-trifluoromethyl-benzoyl}-guanidine], the IC50 was 55 nM.

Turning to `Cn1cncc1C(=O)N1CCC(c2ccc(C(=O)NC(=N)N)cc2C(F)(F)F)CC1` [N-{4-[1-(3-Methyl-3H-imidazole-4-carbonyl)-piperidin-4-yl]-3-trifluoromethyl-benzoyl}-guanidine], the IC50 was 15 nM.

`CC(C)CC(=O)N1CCC(c2ccc(C(=O)NC(=N)N)cc2C(F)(F)F)CC1` [N-{4-[1-(3-Methyl-butyryl)-piperidin-4-yl]-3-trifluoromethyl-benzoyl}-guanidine]: the IC50 came to 49 nM.

On to `N=C(N)NC(=O)c1ccc(C2CCN(C(=O)c3cccc(-c4cnco4)c3)CC2)c(C(F)(F)F)c1` [N-{4-[1-(3-Oxazol-5-yl-benzoyl)-piperidin-4-yl]-3-trifluoromethyl-benzoyl}-guanidine], for which the IC50 came out at 14 nM.

With `N=C(N)NC(=O)c1ccc(C2CCN(C(=O)CCc3ccccc3)CC2)c(C(F)(F)F)c1` [N-{4-[1-(3-Phenyl-propionyl)-piperidin-4-yl]-3-trifluoromethyl-benzoyl}-guanidine], the IC50 was determined as 75 nM.

In the case of `N=C(N)NC(=O)c1ccc(C2CCN(C(=O)c3cccc(-n4cccn4)c3)CC2)c(C(F)(F)F)c1` [N-{4-[1-(3-Pyrazol-1-yl-benzoyl)-piperidin-4-yl]-3-trifluoromethyl-benzoyl}-guanidine], the IC50 amounted to 150 nM.

Take `N=C(N)NC(=O)c1ccc(C2CCN(C(=O)c3cccc(-c4ccccn4)c3)CC2)c(C(F)(F)F)c1` [N-{4-[1-(3-Pyridin-2-yl-benzoyl)-piperidin-4-yl]-3-trifluoromethyl-benzoyl}-guanidine]: the IC50 was 147 nM.

Take `N=C(N)NC(=O)c1ccc(C2CCN(C(=O)c3cccc(-c4cccnc4)c3)CC2)c(C(F)(F)F)c1` [N-{4-[1-(3-Pyridin-3-yl-benzoyl)-piperidin-4-yl]-3-trifluoromethyl-benzoyl}-guanidine]: the concentration for half-maximal inhibition (IC50) was found to be 140 nM.

With `N=C(N)NC(=O)c1ccc(C2CCN(C(=O)c3cccc(S(=O)(=O)C(F)(F)F)c3)CC2)c(C(F)(F)F)c1` [N-{4-[1-(3-Trifluoromethanesulfonyl-benzoyl)-piperidin-4-yl]-3-trifluoromethyl-benzoyl}-guanidine], the IC50 was 280 nM.

In the case of `CS(=O)(=O)c1cc(C(=O)NC(=N)N)ccc1C1CCN(C(=O)c2cccc(C#N)c2)CC1` [N-{4-[1-(3-cyano-benzoyl)-piperidin-4-yl]-3-methanesulfonyl-benzoyl}-guanidine], the IC50 stood at 34 nM.

On to `Cc1cc(C2CCN(C(=O)c3cccc(C#N)c3)CC2)c(S(C)(=O)=O)cc1C(=O)NC(=N)N` [N-{4-[1-(3-cyano-benzoyl)-piperidin-4-yl]-5-methanesulfonyl-2-methyl-benzoyl}-guanidine], for which the half-inhibitory concentration (IC50) worked out at 23 nM.

In the case of `N=C(N)NC(=O)c1ccc(C2=CCN(C(=O)c3cnc[nH]3)CC2)c(C(F)(F)F)c1` [N-{4-[1-(3H-Imidazole-4-carbonyl)-1,2,3,6-tetrahydro-pyridin-4-yl]-3-trifluoromethyl-benzoyl}-guanidine], the IC50 came to 26 nM.

Regarding `N=C(N)NC(=O)c1ccc(C2CCN(C(=O)C3(N)CCS(=O)(=O)CC3)CC2)c(C(F)(F)F)c1` [N-{4-[1-(4-Amino-1,1-dioxo-hexahydro-g-thiopyran-4-carbonyl)-piperidin-4-yl]-3-trifluoromethyl-benzoyl}-guanidine], the IC50 was determined as 11 nM.

Take `N=C(N)NC(=O)c1ccc(C2CCN(C(=O)C3(N)CCOCC3)CC2)c(C(F)(F)F)c1` [N-{4-[1-(4-Amino-tetrahydro-pyran-4-carbonyl)-piperidin-4-yl]-3-trifluoromethyl-benzoyl}-guanidine]: the IC50 was 18 nM.

In the case of `N=C(N)NC(=O)c1ccc(C2CCN(C(=O)c3ccc(Cl)cc3)CC2)c(C(F)(F)F)c1` [N-{4-[1-(4-Chloro-benzoyl)-piperidin-4-yl]-3-trifluoromethyl-benzoyl}-guanidine], the concentration for half-maximal inhibition (IC50) is 320 nM.

As for `N#Cc1ccc(C(=O)N2CCC(c3ccc(C(=O)NC(=N)N)cc3C(F)(F)F)CC2)cc1` [N-{4-[1-(4-Cyano-benzoyl)-piperidin-4-yl]-3-trifluoromethyl-benzoyl}-guanidine], the IC50 is 24 nM.

On to `CN(C)c1ccc(C(=O)N2CCC(c3ccc(C(=O)NC(=N)N)cc3C(F)(F)F)CC2)cc1` [N-{4-[1-(4-Dimethylamino-benzoyl)-piperidin-4-yl]-3-trifluoromethyl-benzoyl}-guanidine], for which the concentration for half-maximal inhibition (IC50) turned out to be 180 nM.

Take `N=C(N)NC(=O)c1ccc(C2CCN(C(=O)c3ccc(F)cc3C(F)(F)F)CC2)c(C(F)(F)F)c1` [N-{4-[1-(4-Fluoro-2-trifluoromethyl-benzoyl)-piperidin-4-yl]-3-trifluoromethyl-benzoyl}-guanidine]: the IC50 worked out at 350 nM.

`COc1cc(C2CCN(C(=O)c3ccc(F)cc3)CC2)c(C(F)(F)F)cc1C(=O)NC(=N)N` [N-{4-[1-(4-Fluoro-benzoyl)-piperidin-4-yl]-2-methoxy-5-trifluoromethyl-benzoyl}-guanidine]: the IC50 was determined as 16 nM.

For `Cc1cc(C2CCN(C(=O)c3ccc(F)cc3)CC2)c(C(F)(F)F)cc1C(=O)NC(=N)N` [N-{4-[1-(4-Fluoro-benzoyl)-piperidin-4-yl]-2-methyl-5-trifluoromethyl-benzoyl}-guanidine], the IC50 came out at 7 nM.

As to `CS(=O)(=O)c1cc(C(=O)NC(=N)N)ccc1C1CCN(C(=O)c2ccc(F)cc2)CC1` [N-{4-[1-(4-Fluoro-benzoyl)-piperidin-4-yl]-3-methanesulfonyl-benzoyl}-guanidine], the half-maximal inhibitory concentration (IC50) is 18 nM.
